A short description of series [1]: Absorbance of DSPE-PEG encapsulated and co-encapsulated dyes. The conditions noted are these: co-encapsulated in DSPE-PEG (rNP-NO) versus separate. It is filed as physicochemical. The text has this:
The SCR-NO and IR-1061 were encapsulated using DSPE-PEG (a common phospholipids-polymer conjugate) to give NP-SCR-NO and NP-IR-1061, respectively. […] However, when the components were co-encapsulated (rNP-NO, ratiometric NP for NO), there was observed a favorable ˜100 nm red-shift of the SCR-NO λabs into the SWIR region (FIG. 3A). The corresponding change for IR-1061 was minimal (1 nm).

Series [2] can be described thus: Photophysical properties of the dyes in dichloromethane. It is filed as physicochemical. The conditions noted are these: for QY / Stokes Shift / ε / λabs / λem: in dichloromethane (DCM). The source says: The quantum yield (QY) of the dyes decreased as the absorption wavelength increased, which is common to these dyes.

Turning to `ClC1=C(/C=C/c2cc(-c3ccccc3)[s+]c(-c3ccccc3)c2)CCC/C1=C/C=C1C=C(c2ccccc2)SC(c2ccccc2)=C1.F[B-](F)(F)F` [IR-1061], in series [1], the “red-shift / change of λabs” value was determined as 1 nm.
Regarding `CCOC(=O)c1ccccc1C1=c2cc/c(=C3/C=CC(=[N+]4c5ccccc5C=Cc5ccccc54)S3)cc2Oc2cc(-c3ccc(N4c5ccccc5C=Cc5ccccc54)s3)ccc21` [SCR-1], in series [2], the absorption maxima worked out at 840, the QY stood at 0.31%, the “Stokes Shift” value came to 110 and the ε is recorded as 1.20 (M^−1cm^−1) × 10^5. In series [2], this compound returned a λabs of 840 nm and a λem of 950 nm. In series [2] (calculated value), the “PA brightness value (EC×(1−QY))” value is 82800 M⁻¹ cm⁻¹.
Regarding `CCOC(=O)c1ccccc1C1=c2cc/c(=c3/cc4c(s3)=CC(=[N+]3c5ccccc5C=Cc5ccccc53)S4)cc2Oc2cc(-c3cc4sc(N5c6ccccc6C=Cc6ccccc65)cc4s3)ccc21` [SCR-2], in series [2], the absorption maxima was determined as 950, the QY came to 0.036%, the “Stokes Shift” value was 150 and the ε is 1.24 (M^−1cm^−1) × 10^5. In series [2], this compound gave a λabs of 950 nm and a λem of 1100 nm.
With `CCOC(=O)c1ccccc1C1=c2cc/c(=c3/cc/c(=C4\C=CC(=[N+]5c6ccccc6C=Cc6ccccc65)S4)s3)cc2Oc2cc(-c3ccc(-c4ccc(N5c6ccccc6C=Cc6ccccc65)s4)s3)ccc21` [SCR-3], in series [2], the absorption maxima is 1040, the QY is 0.016%, the “Stokes Shift” value amounted to 220 and the ε is recorded as 0.80 (M^−1cm^−1) × 10^5. Moreover, in series [2], the λabs is 1040 nm and the λem was found to be 1260 nm.

(Values after US20240199882A1, “THIENYL-DIBENZOAZEPINES AND THEIR DERIVATIVES AS DONORS FOR XANTHENE-BASED SHORT-WAVE INFRARED (SWIR) DYES” (Mississippi State University, priority 2022, published 2024).)
